Biological target: WDR5 (Homo sapiens, UniProt P61964)
Test: Competition-based fluorescence polarization anisotropy assay
Conditions: binding to WDR5; displacement of FITC-labeled small molecule probe (analogous to Example J2 or HCH-25) or peptide probe FITC-AHx-SEEEIDVVSV; pH 6.0; Ki converted from IC50
Procedure, shortened: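 Competition fluorescence polarization anisotropy binding to WDR5 using a FITC-labeled peptide probe or a fluorescently labeled small-molecule probe. Buffer: 200 mM phosphate, 300 mM NaCl, 0.5 mM TCEP, 0.1% Chaps, pH 6.0. Displacement data were converted to Ki.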

## O=C(NC1CC(F)(F)C1)c1cc(OC(F)(F)F)cc(NS(=O)(=O)c2cc(Br)ccc2O)c1O [HCH-55, 3-((5-Bromo-2-hydroxyphenyl)sulfonamido)-N-(3,3-difluorocyclobutyl)-2-hydroxy-5-(trifluoromethoxy)benzamide]
  Ki: 0.35 µM

## NC(=O)[C@H](CO)NC(=O)c1cc(OC(F)(F)F)cc(NS(=O)(=O)c2cc(Br)cc(Cl)c2O)c1O [HCH-56, (S)—N-(1-Amino-3-hydroxy-1-oxopropan-2-yl)-3-((5-bromo-3-chloro-2-hydroxyphenyl)sulfonamido)-2-hydroxy-5-(trifluoromethoxy)benzamide]
  Ki: 0.19 µM

## CC(NC(=O)c1cc(OC(F)(F)F)cc(NS(=O)(=O)c2cc(Br)cc(Cl)c2O)c1O)C(N)=O (stereo not shown) [HCH-57, N-(1-Amino-1-oxopropan-2-yl)-3-((5-bromo-3-chloro-2-hydroxyphenyl)sulfonamido)-2-hydroxy-5-(trifluoromethoxy)benzamide]
  Ki: 0.15 µM

## CCc1cc(Br)cc(S(=O)(=O)Nc2cc(Cl)cc(C(=O)NC3COC3)c2O)c1O [HCH-58, 3-((5-Bromo-3-ethyl-2-hydroxyphenyl)sulfonamido)-5-chloro-2-hydroxy-N-(oxetan-3-yl)benzamide]
  Ki: 0.46 µM

## CCc1cc(Br)cc(S(=O)(=O)Nc2cc(Cl)cc(C(=O)NC(C)C(N)=O)c2O)c1O (stereo not shown) [HCH-59, N-(1-Amino-1-oxopropan-2-yl)-3-((5-bromo-3-ethyl-2-hydroxyphenyl)sulfonamido)-5-chloro-2-hydroxybenzamide]
  Ki: 0.34 µM

## COC1CC(NC(=O)c2cc(OC(F)(F)F)cc(NS(=O)(=O)c3cc(Br)cc(Cl)c3O)c2O)C1 (stereo not shown) [HCH-60, 3-((5-Bromo-3-chloro-2-hydroxyphenyl)sulfonamido)-2-hydroxy-N-(3-methoxycyclobutyl)-5-(trifluoromethoxy)benzamide]
  Ki: 0.24 µM

## O=C(NC1CC(O)C1)c1cc(OC(F)(F)F)cc(NS(=O)(=O)c2cc(Br)cc(Cl)c2O)c1O (stereo not shown) [HCH-61, 3-((5-Bromo-3-chloro-2-hydroxyphenyl)sulfonamido)-2-hydroxy-N-(3-hydroxycyclobutyl)-5-(trifluoromethoxy)benzamide]
  Ki: 0.24 µM

## NC(=O)c1cc(OC(F)(F)F)cc(NS(=O)(=O)c2cc(Br)cc(Cl)c2O)c1O [HCH-62, 3-((5-Bromo-3-chloro-2-hydroxyphenyl)sulfonamido)-2-hydroxy-5-(trifluoromethoxy)benzamide]
  Ki: 0.33 µM

## CNC(=O)c1cc(OC(F)(F)F)cc(NS(=O)(=O)c2cc(Br)cc(Cl)c2O)c1O [HCH-63, 3-((5-Bromo-3-chloro-2-hydroxyphenyl)sulfonamido)-2-hydroxy-N-methyl-5-(trifluoromethoxy)benzamide]
  Ki: 0.2 µM

## N#CC1(c2ccc(O)c(NS(=O)(=O)c3cc(Br)ccc3O)c2)CCCC1 [JDM-06-030A, 5-Bromo-N-(5-(1-cyanocyclopentyl)-2-hydroxyphenyl)-2-hydroxybenzenesulfonamide]
  Ki: 0.61 µM

## N#CC1(c2ccc(O)c(NS(=O)(=O)c3cc(Br)ccc3O)c2)CCC1 [JDM-06-030B, 5-Bromo-N-(5-(1-cyanocyclobutyl)-2-hydroxyphenyl)-2-hydroxybenzenesulfonamide]
  Ki: 0.29 µM

## N#CC1(c2ccc(O)c(NS(=O)(=O)c3cc(Br)ccc3O)c2)CCCCC1 [JDM-06-030C, 5-Bromo-N-(5-(1-cyanocyclohexyl)-2-hydroxyphenyl)-2-hydroxybenzenesulfonamide]
  Ki: 0.23 µM

## O=S(=O)(Nc1cc(S(F)(F)(F)(F)F)ccc1O)c1cc(Br)ccc1O [JDM-08-142A, 5-Bromo-2-hydroxy-N-(2-hydroxy-5-(pentafluorosulfanyl)phenyl)benzenesulfonamide]
  Ki: 0.11 µM

## O=S(=O)(Nc1cc(C2(C(F)(F)F)CC2)ccc1O)c1cc(Br)ccc1O [JDM-09-131, 5-Bromo-2-hydroxy-N-(2-hydroxy-5-(1-(trifluoromethyl)cyclopropyl)phenyl)benzenesulfonamide]
  Ki: 0.55 µM

## N#CC1(c2ccc(O)c(NS(=O)(=O)c3cc(Br)ccc3O)c2)CC1 [JDM-10-107, 5-Bromo-N-(5-(1-cyanocyclopropyl)-2-hydroxyphenyl)-2-hydroxybenzenesulfonamide]
  Ki: 0.85 µM

## O=S(=O)(Nc1cc(C2CC2)ccc1O)c1cc(Br)ccc1O [JDM-10-108A, 5-Bromo-N-(5-cyclopropyl-2-hydroxyphenyl)-2-hydroxybenzenesulfonamide]
  Ki: 0.82 µM

## COc1ccc(Br)cc1S(=O)(=O)Nc1cc(Cl)cc([N+](=O)[O-])c1O [NE1, 5-Bromo-N-(5-chloro-2-hydroxy-3-nitrophenyl)-2-methoxybenzenesulfonamide]
  Ki: 1.78 µM

## COc1ccc(Cl)cc1S(=O)(=O)Nc1cc(Cl)cc([N+](=O)[O-])c1O [NE2, 5-Chloro-N-(5-chloro-2-hydroxy-3-nitrophenyl)-2-methoxybenzenesulfonamide]
  Ki: 5.05 µM

## O=[N+]([O-])c1cc(Cl)cc(NS(=O)(=O)c2cc(Br)ccc2O)c1O [NE6, 5-Bromo-N-(5-chloro-2-hydroxy-3-nitrophenyl)-2-hydroxybenzenesulfonamide]
  Ki: 12.4 µM

## O=[N+]([O-])c1cc(Cl)cc(NS(=O)(=O)c2cc(Br)cc3c2OCC3)c1O [NE7, 5-Bromo-N-(5-chloro-2-hydroxy-3-nitrophenyl)-2,3-dihydrobenzofuran-7-sulfonamide]
  Ki: 1.11 µM

## COc1cc(OC)c(S(=O)(=O)Nc2cc(Cl)cc([N+](=O)[O-])c2O)cc1Br [NE8, 5-Bromo-N-(5-chloro-2-hydroxy-3-nitrophenyl)-2,4-dimethoxybenzenesulfonamide]
  Ki: 7.24 µM

## O=[N+]([O-])c1cc(Cl)cc(NS(=O)(=O)c2cc(Br)cc(OC(F)(F)F)c2O)c1O [NE9, 5-Bromo-N-(5-chloro-2-hydroxy-3-nitrophenyl)-2-hydroxy-3-(trifluoromethoxy)benzenesulfonamide]
  Ki: 0.39 µM

## CCCc1cc(Br)cc(S(=O)(=O)Nc2cc(Cl)cc([N+](=O)[O-])c2O)c1O [NE10, 5-Bromo-N-(5-chloro-2-hydroxy-3-nitrophenyl)-2-hydroxy-3-propylbenzenesulfonamide]
  Ki: 11.7 µM

## O=C(O)c1cc(Br)cc(S(=O)(=O)Nc2cc(Cl)cc([N+](=O)[O-])c2O)c1O [NE12]
  Ki: 0.61 µM

## O=C1CCCN1c1cc(Cl)cc(NS(=O)(=O)c2cc(Br)cc(Cl)c2O)c1 [NE13, 5-Bromo-3-chloro-N-(3-chloro-5-(2-oxopyrrolidin-1-yl)phenyl)-2-hydroxybenzenesulfonamide]
  Ki: 1.42 µM

## O=C1NCCN1c1cc(Cl)cc(NS(=O)(=O)c2cc(Br)cc(Cl)c2O)c1 [NE14, 5-Bromo-3-chloro-N-(3-chloro-5-(2-oxoimidazolidin-1-yl)phenyl)-2-hydroxybenzenesulfonamide]
  Ki: 0.37 µM

## CNC(=O)c1cc(C2(C#N)CCC2)cc(NS(=O)(=O)c2cc(Br)cc(Cl)c2OC)c1O [SN-3, 3-((5-bromo-3-chloro-2-methoxyphenyl)sulfonamido)-5-(1-cyanocyclobutyl)-2-hydroxy-N-methylbenzamide]
  Ki: 13.7 µM

## COc1c(Cl)cc(Br)cc1S(=O)(=O)Nc1cc(C2(C#N)CCC2)cc(C(=O)O)c1O [SN-4, 3-((5-bromo-3-chloro-2-methoxyphenyl)sulfonamido)-5-(1-cyanocyclobutyl)-2-hydroxybenzoic acid]
  Ki: 0.87 µM

## CNC(=O)c1cc(C2(C#N)CCC2)cc(NS(=O)(=O)c2cc(Br)c(F)cc2OC)c1O [SN-5, 3-((5-bromo-4-fluoro-2-methoxyphenyl)sulfonamido)-5-(1-cyanocyclobutyl)-2-hydroxy-N-methylbenzamide]
  Ki: 2.62 µM

## N#CC1(c2cc(NS(=O)(=O)c3cc(Br)cc4cccnc34)c(O)c(C(=O)O)c2)CCC1 [SN-6, 3-((6-bromoquinoline)-8-sulfonamido)-5-(1-cyanocyclobutyl)-2-hydroxybenzoic acid]
  Ki: 0.04 µM

## CNC(=O)c1cc(C2(C#N)CCC2)cc(NS(=O)(=O)c2cc(Br)cc3c2OCC3)c1O [SN-9, 3-((5-bromo-2,3-dihydrobenzofuran)-7-sulfonamido)-5-(1-cyanocyclobutyl)-2-hydroxy-N-methylbenzamide]
  Ki: 0.99 µM

## N#CC1(c2cc(NS(=O)(=O)c3cc(Br)cc4c3OCC4)c(O)c(C(=O)O)c2)CCC1 [SN-10, 3-((5-bromo-2,3-dihydrobenzofuran)-7-sulfonamido)-5-(1-cyanocyclobutyl)-2-hydroxybenzoic acid]
  Ki: 0.05 µM

## Methyl 4-chloro-2-(N-(5-chloro-2-hydroxy-3-nitrophenyl)sulfamoyl)benzoate [NE4]
  Ki: 1.81 µM

## Methyl 4-chloro-2-(N-(5-chloro-2-hydroxy-3-nitrophenyl)sulfamoyl)benzoate [NE5]
  Ki: 0.46 µM

Reference: US12398097B2, “WDR5-MYC inhibitors” (Vanderbilt University, priority 2019, dated 2025)
